Experiment [1] deals with retinoid X receptor (RXR). Description: Etoposide-induced apoptosis in HeLa cells transfected with RXR.
The subject of a further experiment is E domain of the ER. Description: Etoposide-induced apoptosis in HeLa cells transfected with the E domain of ERα. Type of experiment: cell-based, human. As for the experimental part: (§1) DNA constructs. […] Bio. […] The sequence for peptide αII is […] (SEQ ID NO.: 1). […] (SEQ ID NO.: 3). The sequence for GRIP is […] […] […] (SEQ ID NO.: 4). […] The forward primer contained the restriction site for SalI and the ERα Kozak sequence and the reverse primer contained the BamH1 restriction site. Amplified PCR products were subcloned into the SalI/BamH1 restriction site of pCMV.
(§2) Transient transfections. HeLa cells were plated at 5×10^4/cm^2 and after 16-24 hours were transfected with a total amount of 3 μg of DNA using Lipofectamine (Life Technologies Inc). Following a 4-6 hours of incubation, the transfection mix was replaced with fresh medium containing 10% charcoal-stripped serum and treatments were initiated.

Experiment [2] concerns the target T1, ERα (Homo sapiens, UniProt P03372).
T1 sequence (P03372 1-595): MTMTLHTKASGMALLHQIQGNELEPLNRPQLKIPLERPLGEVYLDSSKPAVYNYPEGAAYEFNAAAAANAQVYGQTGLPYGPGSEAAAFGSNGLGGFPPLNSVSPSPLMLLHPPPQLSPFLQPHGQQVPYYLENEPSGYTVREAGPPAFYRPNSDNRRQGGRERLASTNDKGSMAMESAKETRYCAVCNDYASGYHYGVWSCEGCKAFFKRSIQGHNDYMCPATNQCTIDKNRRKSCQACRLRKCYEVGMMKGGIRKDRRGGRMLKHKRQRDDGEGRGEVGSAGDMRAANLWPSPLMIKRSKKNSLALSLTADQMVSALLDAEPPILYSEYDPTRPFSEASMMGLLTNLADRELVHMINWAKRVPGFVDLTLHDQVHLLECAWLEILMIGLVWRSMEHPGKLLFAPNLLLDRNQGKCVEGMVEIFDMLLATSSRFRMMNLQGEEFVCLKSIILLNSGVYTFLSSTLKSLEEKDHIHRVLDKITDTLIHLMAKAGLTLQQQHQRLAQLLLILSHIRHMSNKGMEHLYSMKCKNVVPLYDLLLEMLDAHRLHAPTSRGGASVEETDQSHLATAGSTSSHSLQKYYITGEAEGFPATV
Description: Etoposide-induced apoptosis in HeLa cells transfected with ERα.

For the next experiment, the target named is T2, AR (Homo sapiens, UniProt P10275).
T2 sequence (P10275 1-920): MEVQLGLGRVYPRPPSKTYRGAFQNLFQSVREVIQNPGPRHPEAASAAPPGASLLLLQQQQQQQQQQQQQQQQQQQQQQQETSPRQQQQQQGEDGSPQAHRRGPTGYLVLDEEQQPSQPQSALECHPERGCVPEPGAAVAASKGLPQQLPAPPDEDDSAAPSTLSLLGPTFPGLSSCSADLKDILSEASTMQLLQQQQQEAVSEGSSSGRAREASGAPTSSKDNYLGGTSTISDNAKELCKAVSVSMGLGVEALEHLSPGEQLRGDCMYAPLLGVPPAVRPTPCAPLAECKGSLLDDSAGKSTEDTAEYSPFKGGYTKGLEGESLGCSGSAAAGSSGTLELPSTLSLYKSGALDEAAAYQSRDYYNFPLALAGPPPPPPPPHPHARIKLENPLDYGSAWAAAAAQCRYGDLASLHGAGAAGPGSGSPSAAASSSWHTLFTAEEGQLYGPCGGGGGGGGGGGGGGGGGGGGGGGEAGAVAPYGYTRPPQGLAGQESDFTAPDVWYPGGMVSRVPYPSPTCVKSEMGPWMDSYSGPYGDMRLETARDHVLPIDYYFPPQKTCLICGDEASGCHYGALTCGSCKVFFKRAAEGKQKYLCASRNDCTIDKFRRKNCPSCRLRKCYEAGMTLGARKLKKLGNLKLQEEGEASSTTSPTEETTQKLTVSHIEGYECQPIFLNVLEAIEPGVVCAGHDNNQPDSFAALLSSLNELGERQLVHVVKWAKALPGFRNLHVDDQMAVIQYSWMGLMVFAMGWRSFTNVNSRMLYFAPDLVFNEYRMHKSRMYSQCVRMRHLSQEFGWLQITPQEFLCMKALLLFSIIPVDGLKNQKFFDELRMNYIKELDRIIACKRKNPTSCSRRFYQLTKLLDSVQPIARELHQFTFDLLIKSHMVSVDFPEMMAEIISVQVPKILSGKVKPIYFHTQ
Description: Etoposide-induced apoptosis in HeLa cells transfected with AR.

The subject of the next experiment is ERK1/2. Nature of the experiment: ERK phosphorylation in MLO-Y4 cells (Western blot). Conditions: inhibitor 25 min, then 5 min E2 or DHT. Type of experiment: cell-based. (A western blot detects proteins with antibodies after separation by electrophoresis.)
Experiment [3] relates to osteocytic cell line MLO-Y4. Description: Apoptosis of MLO-Y4 osteocytic cells (trypan blue). Type of experiment: cell-based. As to conditions: inhibitor 30 min prior to E2 or DHT; etoposide 6 hours.
The target in experiment [4] is T1, ERα. Nature of the experiment: C3-luc transcription in HeLa cells transfected with ERα. The experiment is classed as cell-based. On the set-up: expression vectors encoding the full length ERα or its E domain; expressed in transfected cells; host or cells: HeLa. Conditions: HeLa with C3-luc and ERα. As for the experimental part:
A. For C3-mediated transcription, HeLa cells were transfected with C3-luc and ERα, and were treated with the indicated concentrations of an estren or a pyrazole. Bars represent the mean±SD of the relative luciferase units (RLU) normalized for β-galactosidase activity. p<0.05 versus cells transfected with empty vector (ev), by ANOVA. The anti-apoptotic activity of the estren and the pyrazole was evaluated in calvaria-derived osteoblasts as described in FIG. 1B. * p<0.05 versus cells not treated with etoposide by ANOVA. B. MLO-Y4 cells were incubated for 5, min with the indicated concentrations of the different ligands and ERK phosphorylation was assessed as in FIG. 4A.
DNA constructs. Reporter plasmids carrying the 2.25 Kb of the human IL-6 promoter, 3 copies of the vitellogenin ERE sequences, or the complement 3 promoter driving the firefly luciferase gene (IL-6-luc, ERE-luc, and C3-luc, respectively) were used to assay transcriptional effects of the steroids. The expression plasmids of ER peptide antagonists carrying either αII, or two copies of 293 (2x293) , or two copies of F6 (2xF6) or GRIP fused to the GAL4 DNA binding domain driven by the SV40 promoter have been described previously (Norris, J. D. et al. (1999) Science 285, 744-746). The sequences of the peptides are disclosed in Chang et al. (1999) Mol. Cell. Bio. 19:8226-8239 which is incorporated herein in its entirety. […]

The test system of experiment [5] is calvaria-derived murine osteoblastic cells. Nature of the experiment: Apoptosis of calvaria-derived osteoblastic cells (trypan blue). As to conditions: etoposide-induced apoptosis.
The target in experiment [6] is T1, ERα. Nature of the experiment: IL-6-luc transcription in HeLa cells transfected with ERα. The experiment is classed as cell-based. Also noted: expression vectors encoding the full length ERα or its E domain; expressed in transfected cells; host or cells: HeLa. As to conditions: ERα carrying HeLa cells, 10^−8 M E2.
Description: (§3) A. HeLa cells were transiently transfected with the ERα expression vector alone or together with a vector carrying a fusion of the α-II peptide with the GAL4 DNA binding domain driven by the SV40 promoter. In addition, cells were transfected with ERE-luc or IL-6-luc for the transcription studies; or with EGFP-nuc for the apoptosis experiments. […] B. HeLa cells were transfected with ERα or ERβ alone or together with expression vectors carrying 2X293 or 2XF6 peptides. […] C. HeLa cells were transfected with a vector carrying the GRIP peptide alone or together with ERα.
as §1, §2

Experiment [7] concerns the target T1, ERα. Nature of the experiment: ERE-luc transcription in HeLa cells transfected with ERα. Type of experiment: cell-based. On the set-up: expression vectors encoding the full length ERα or its E domain; expressed in transfected cells; host or cells: HeLa. Conditions: ERα carrying HeLa cells, 10^−8 M E2.
Description: as §3, §1, §2

Experiment [8] concerns the target T3, ERβ (Homo sapiens, UniProt Q92731). Nature of the experiment: IL-6-luc transcription in HeLa cells transfected with ERβ. Also noted: expressed in transfected cells; host or cells: HeLa. The experiment is classed as cell-based. As to conditions: ERβ carrying HeLa cells, 10^−8 M E2.
Description: as §3, §1, §2

Experiment [9] addresses T3, ERβ. Description: Etoposide-induced apoptosis in HeLa cells transfected with ERβ. As to conditions: peptide co-transfected, 10^−8 M E2.
For experiment [10], the target named is T3, ERβ. Description: ERE-luc transcription in HeLa cells transfected with ERβ. On the set-up: expressed in transfected cells; host or cells: HeLa. As to conditions: ERβ carrying HeLa cells, 10^−8 M E2. The experiment is classed as cell-based.
Description: as §3, §1, §2

This is an account of results in patent publication US20020137209A1, “Methods of dissociating nongenotropic from genotropic activity of steroid receptors” (priority 2000, published 2002).

Ends that are not written are not given here.

T3 sequence (Q92731 whole entry, species assumed): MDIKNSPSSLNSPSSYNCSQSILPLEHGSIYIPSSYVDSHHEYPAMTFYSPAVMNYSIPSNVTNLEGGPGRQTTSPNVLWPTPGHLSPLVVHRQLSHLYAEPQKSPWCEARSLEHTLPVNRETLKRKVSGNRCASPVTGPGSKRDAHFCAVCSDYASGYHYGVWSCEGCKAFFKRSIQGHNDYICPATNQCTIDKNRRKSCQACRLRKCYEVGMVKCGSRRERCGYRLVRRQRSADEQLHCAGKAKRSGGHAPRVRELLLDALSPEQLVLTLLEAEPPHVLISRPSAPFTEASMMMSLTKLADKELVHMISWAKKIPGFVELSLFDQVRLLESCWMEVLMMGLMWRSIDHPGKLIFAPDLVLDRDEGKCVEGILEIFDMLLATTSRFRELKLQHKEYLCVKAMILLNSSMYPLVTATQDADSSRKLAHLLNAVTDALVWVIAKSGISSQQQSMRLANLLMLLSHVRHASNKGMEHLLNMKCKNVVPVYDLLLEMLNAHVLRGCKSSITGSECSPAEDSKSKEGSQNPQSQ
Description for ERK1/2: Western blot analysis. The phosphorylation status of ERK1/2 was analyzed by immunoblotting using a mouse monoclonal antibody recognizing tyrosine phosphorylated ERK1/2, or a rabbit polyclonal antibody recognizing total ERK1/2, followed by incubation with either an anti-mouse or an anti-rabbit antibody conjugated with horseradish peroxidase (Santa Cruz Biotechnology).

In the case of `C=C1/C(=C\C=C2/CCC[C@]3(C)[C@@H]([C@H](C)CCCC(C)(C)O)CC[C@@H]23)C[C@@H](O)C[C@@H]1O` [1,25(OH)2D3, 1,25-dihydroxy-Vitamin D3], the “prevention of etoposide-induced apoptosis” value in experiment [1] is given as “prevented apoptosis”.

For the molecule `COc1cccc(-c2cc(=O)c3ccccc3o2)c1N` [PD98059], the “effect of inhibitor on anti-apoptotic activity, compared with full length ERα” value in the experiment with E domain of the ER is reported as “exactly the same effects”. In addition, the “effect of antagonist/inhibitor on the anti-apoptotic effect of E2 or DHT” value on ERα [2] (HeLa transfected with ERα) and at AR was “abrogated” in each case. For the same molecule, the “effect of inhibitor on induction of ERK phosphorylation by E2 or DHT” value with ERK1/2 was “blocked”. Besides, the “effect of inhibitor on the anti-apoptotic effect of E2 and DHT” value in [3] is “completely abrogated”.

In the case of `c1cn[nH]c1` [pyrazole], the “transcriptional activity on the C3 gene (C3-luc)” value at ERα [4] is listed as “potent transcriptional activity”. The “anti-apoptotic efficacy on primary calvaria cells” value in experiment [5] is reported as “minimal anti-apoptotic efficacy”.

“F6: peptide GHEPLTLLERLLMDDKQAV (SEQ ID NO.: 3) interacting with both ERα and ERβ; two copies expressed as GAL4 fusion (also: two copies fused to GAL4 DNA binding domain)”: the “effect of peptide on E2-induced decrease in IL-6-Luc transcription” value in the experiment with ERα [6] is given as “blocked”. Moreover, the “effect of peptide on E2-induced ERE-Luc transcription” value with ERα [7] and with ERβ [10] was “blocked” in each case. In addition, in the experiment with ERβ [8], the “effect of peptide on E2 effect on IL-6-Luc transcription” value is reported as “blocked”. In addition, in the experiment with ERβ [9], the “effect of peptide on the anti-apoptotic activity of ERβ (E2)” value was “blocked”. The “effect of peptide on the anti-apoptotic activity of ERα (E2)” value in the experiment with ERα [2] (peptide co-transfected, 10^−8 M E2) is “blocked”.

On to estren, for which the “transcriptional activity on the C3 gene (C3-luc)” value on ERα [4] was “no transcriptional activity”. Further, the “anti-apoptotic efficacy on primary calvaria cells” value in experiment [5] is “potent anti-apoptotic efficacy”.
